# Measurements: patent publication US8796202B2, “Multi-valent poly-Ubl chain inhibitors and methods of use” (City of Hope, priority 2011, dated 2014)
# “Also recorded” adds a separate entry of the source. Non-standard residues stand in square brackets, D forms with d. Residues, ends and D or L forms follow the SMILES beside them. ξ: configuration not given here. *: point of attachment. Ile(3ξ) = CCC(C)[C@H](N)C(=O)O; Cbz = O=C(OCc1ccccc1)*
# Key:
# SUMO-3 = SUMO-3 (Homo sapiens, UniProt P55854); assay: NMR (HSQC) chemical shift perturbation binding to SUMO-3; settings: for chemical shift perturbation / binding to SUMO-3: HSQC, SUMO:ligand 1:3 or 1:10
# Protocol: NMR studies. All NMR samples contained 10 mM phosphate buffer (pH 7.0) in 90% H2O/10% D2O. NMR spectra were acquired at 25° C. on a Bruker […] NMR spectrometer. All chemicals were dissolved in DMSO. Heteronuclear Single Quantum Coherence (HSQC) spectra were acquired at SUMO:compound ratios of 1:3 or 1:10 for the top scored compounds from virtual ligand screening. Both SUMO-1 and SUMO-2 were examined for their interactions with the compounds. The HSQC spectra were acquired for the protein alone, the protein with addition of 2% DMSO, and the protein in complex with a compound and 2% DMSO. The dissociation constant Kd was estimated by titrating the compound to SUMO-2, followed by recording HSQC spectra at protein:compound ratios of 1:1, 1:2, 1:3, 1:4, 1:5, 1:6, 1:7 and 1:20.
# Interactions of the compounds shown in FIG. 4 with SUMO-1 and SUMO-3 were verified by NMR chemical shift perturbation analysis. These compounds generated negligible chemical shift perturbations (CSP) on SUMO-1, but much larger and specific chemical shift perturbations on SUMO-3 (FIGS. 5A and 6). […] Chemical shift perturbation was used to estimate the binding affinity of the representative compound, 333751, to SUMO-3 (20). […] This is not surprising given the much smaller size of the compound than the 10 amino acid residue SIM peptide. The SIM-binding groove on SUMO is very shallow and lacks a deep pocket (8). Since there is a lack of high affinity ligands to bind shallow surface pockets of proteins, it is unlikely that a high affinity small molecule ligand for the SIM binding surface of SUMO can be found.
# [1] = biological target: T1, interaction between poly-SUMO-3 chain and the tandem-SIM peptide (Homo sapiens, UniProt P55854); assay: SIM pull-down (ELISA) competition, poly-SUMO-3 chains; assay type: binding
# T1 construct: made in house
# Protocol: Poly-SUMO chain formation. Poly-SUMO chains were synthesized by an in vitro SUMOylation reaction (4.375 μM GST-SUMO-3 and His-SUMO-3, 40 nM Ubc9 and E1, and 5 mM ATP in a 100 μl reaction). The reaction was carried out at 37° C. for 4 h and then diluted to 1 mL with phosphate buffered saline (PBS). Poly-SUMO chains were first separated from the His-SUMO-3 monomer by glutathione affinity chromatography. The eluted poly-SUMO chains were subsequently separated from the GST-SUMO-3 monomer by Ni-NTA chromatography. The eluted poly-SUMO chains were dialyzed and concentrated.
# Purification of GST-WT-SIM and GST-SC-SIM. GST-tagged wild-type (GST-WT-SIM) or scrambled SIM sequence (GST-SC-SIM) was subcloned into the pGex4T-S expression vector (Amersham) and over-expressed as an N-terminal GST fusion protein in Escherichia coli strain BL21 (DE3) (Invitrogen) at 37° C. in LB media. […]
# (§1) SIM pull-down. […] The plate was read at 450 nm by an ELISA reader after the reaction was stopped by addition of phosphoric acid. Quantifications of all SIM pull-downs were scaled by measurement of GST-WT-SIM pull-down (100%) and GST-SCSIM pull-down (0%). […]
# The SIM and control peptides were used in pull-down assays to determine the inhibitory effects of the conjugation of inhibitor to AuNPs. […] The amount of SUMO pulled down by the SIM peptide was detected by enzyme-linked immunosorbent assay (ELISA) in an EIA microtiter plate. […]
# [2] = biological target: interaction between SIM and SUMO-1 (Homo sapiens, UniProt P63165); assay: SIM pull-down (ELISA) competition, SUMO-1 monomer; assay type: binding
# Protocol: (§2) Purification of GST-WT-SIM and GST-SC-SIM. GST-tagged wild-type (GST-WT-SIM) or scrambled SIM sequence (GST-SC-SIM) was subcloned into the pGex4T-S expression vector (Amersham) and over-expressed as an N-terminal GST fusion protein in Escherichia coli strain BL21 (DE3) (Invitrogen) at 37° C. in LB media. Once the OD A595 nm reached 0.6, isopropyl 1-thio-[…] (IPTG; 1 mM) was added to the media and the cells were grown for an additional 4 h at 37° C. […]
# as §1
# (§3) The SIM and control peptides were used in pull-down assays to determine the inhibitory effects of the conjugation of inhibitor to AuNPs. […] The amount of SUMO pulled down by the SIM peptide was detected by enzyme-linked immunosorbent assay (ELISA) in an EIA microtiter plate. […] Based on the concentrations of SUMO chains and the experimental design, it was determined that the IC50 value is likely larger than the average Kd value of the complex between AuNP and SUMO chains.
# [3] = biological target: interaction between SIM and SUMO-3 (Homo sapiens, UniProt P55854); assay: SIM pull-down (ELISA) competition, SUMO-3 monomer; assay type: binding
# Protocol: as §2, §1, §3
# all SUMO isoforms = settings: reference (7), cited from earlier work
# SUMO-3, sequence (P55854 1-92 limits assumed): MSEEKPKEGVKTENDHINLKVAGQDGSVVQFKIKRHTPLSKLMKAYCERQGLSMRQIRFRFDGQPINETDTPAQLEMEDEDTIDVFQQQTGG
# T1 sequence (P55854 1-92 limits assumed): as above
# T1 sequence (P55854 1-92 limits assumed): as above
# interaction between SIM and SUMO-3, sequence (P55854 1-92 limits assumed): as above
# interaction between SIM and SUMO-1, sequence (P63165 1-97 limits assumed): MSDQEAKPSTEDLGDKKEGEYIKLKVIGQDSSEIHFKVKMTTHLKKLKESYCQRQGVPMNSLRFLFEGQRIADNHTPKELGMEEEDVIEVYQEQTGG
molecule,measurement,setting,value
CCC(C)[C@H](NC(=O)OCc1ccccc1)C(=O)N[C@@H](CC(C)C)C(=O)O (stereo partly drawn) [compound 333751] (Cbz-[Ile(3ξ)]-Leu-OH),chemical shift perturbation / binding to SUMO-3,SUMO-3,among the strongest; also recorded: induced chemical shift perturbation on the same surface of SUMO-3 and to a similar extent
same,affinity lower than that between the PIASx SIM and SUMO-2,SUMO-3; compared with PIASx SIM peptide,more than 200 fold
same,Kd,SUMO-3; estimated from chemical shift change vs ligand:protein ratio,1200 ± 400 µM
CCC(C)[C@H](NC(=O)/C=C/c1ccc(NC(=O)CCS)cc1)C(=O)N[C@@H](CC(C)C)C(=O)O (stereo partly drawn) [derivative 2],chemical shift perturbation / binding to SUMO-3,SUMO-3,induced chemical shift perturbation on the same surface of SUMO-3 and to a similar extent
same,inhibition of poly-SUMO-3 chain / SIM interaction,[1],nor did it inhibit poly-SUMO chain and SIM interactions
same,inhibition of SUMO-1 monomer / SIM peptide interaction,[2],not significantly inhibitory
same,inhibition of SUMO-3 monomer / SIM peptide interaction,[3],not significantly inhibitory
KVDVIDLTIE [PIASx SIM],higher affinity for all SUMO isoforms than other characterized SIM sequences,all SUMO isoforms,~10 fold
same,Kd,all SUMO isoforms; read-out: dissociation constants for all SUMO isoforms,4 to 8 µM
